Results: BindingDB's records for doi:10.1021/acs.jmedchem.9b00963 (Hong Kong Polytechnic University, 2019)

Columns and labels:
[1] = Inhibition of BCRP in human MCF7/MX100 cells assessed as reversal of topotecan resistance after 5 days by MTS/PMS assay
[2] = Inhibition of BCRP (unknown origin) transfected in HEK293/R2 cells assessed as reversal of topotecan resistance after 5 days by MTS/PMS assay
[3] = Inhibition of P-gp (unknown origin) expressed in human LCC6MDR cells assessed as reversal of paclitaxel resistance after 5 days by MTS/PMS assay

SMILES | EC50 [1] [nM] | EC50 [2] [nM] | EC50 [3] [nM]
O=c1cc(-c2ccccc2)oc2cc(OCCN(Cc3ccccc3)Cc3cn(CCOCCOc4ccc(-c5cc(=O)c6cc(F)ccc6o5)cc4)nn3)ccc12 | 54 | 48 | 285
O=c1cc(-c2ccc(OCCOCCn3cc(CCCCOc4ccc5c(=O)cc(-c6ccccc6)oc5c4)nn3)cc2)oc2ccccc12 | 25 | 52 | 321
Cc1ccc2oc(-c3ccc(OCCCCc4cn(CCOCCOc5ccc(-c6cc(=O)c7ccccc7o6)cc5)nn4)cc3)cc(=O)c2c1 | 33 | 67 | 370
O=c1cc(-c2ccc(OCCOCCOCCn3cc(CN(CCOc4ccc5c(=O)cc(-c6ccccc6)oc5c4)Cc4ccccc4)nn3)cc2)oc2ccccc12 | 17 | 37 | 275
O=c1cc(-c2ccccc2)oc2cc(OCCCc3cn(CCOCCOCCOc4ccc(-c5cc(=O)c6cc(F)ccc6o5)cc4)nn3)ccc12 | 98 | 38 | 328
COC(=O)c1cccc(COc2c(-c3ccc(OCCOCCOCCn4cc(CN(Cc5cn(CCOCCOCCOc6ccc(-c7oc8ccccc8c(=O)c7OCc7cccc(C(=O)OC)c7)cc6)nn5)c5ccccc5)nn4)cc3)oc3ccccc3c2=O)c1 | 3.9 | 5.8 | > 1000
O=c1cc(-c2ccccc2)oc2cc(OCCCCc3cn(CCOCCOc4ccc5c(=O)cc(-c6ccccc6)oc5c4)nn3)ccc12 | 39 | 34 | 365
Cc1ccc2oc(-c3ccc(OCCCCc4cn(CCOc5ccc6c(=O)cc(-c7ccccc7)oc6c5)nn4)cc3)cc(=O)c2c1 | 223 | 60 | 204
COC(=O)c1cccc(COc2c(-c3ccc(OCCOCCn4cc(-c5ccc(-c6cn(CCOCCOc7ccc(-c8oc9ccccc9c(=O)c8OCc8cccc(C(=O)OC)c8)cc7)nn6)cc5)nn4)cc3)oc3ccccc3c2=O)c1 | 27 | 14 | > 1000
COC(=O)c1cccc(COc2c(-c3ccc(OCCOCCn4cc(CCCOc5ccc6c(=O)cc(-c7ccccc7)oc6c5)nn4)cc3)oc3ccccc3c2=O)c1 | 24 | 7.2 | 616
O=c1cc(-c2ccccc2)oc2cc(OCCCc3cn(CCOCCOCCOc4ccc5c(=O)cc(-c6ccccc6)oc5c4)nn3)ccc12 | 177 | 57 | 515
O=c1cc(-c2ccc(OCCCc3cn(CCOCCOCCOc4ccc(-c5oc6ccccc6c(=O)c5OCc5ccccc5)cc4)nn3)cc2)oc2cc(F)ccc12 | 47 | 25 | 344
Cc1ccc2oc(-c3ccc(OCCCCc4cn(CCOCCOc5ccc(-c6oc7ccccc7c(=O)c6OCc6ccccc6)cc5)nn4)cc3)cc(=O)c2c1 | 24 | 33 | 605
O=c1cc(-c2ccc(OCCOCCOCCn3cc(CCCCOc4ccc5c(=O)cc(-c6ccccc6)oc5c4)nn3)cc2)oc2ccccc12 | 18 | 47 | 360
O=c1cc(-c2ccccc2)oc2cc(OCCCCc3cn(CCOCCOc4ccc(-c5cc(=O)c6cc(F)ccc6o5)cc4)nn3)ccc12 | 18 | 43 | 264
O=c1cc(-c2ccccc2)oc2cc(OCCOCCOCCn3cc(COCCOc4ccc5c(=O)cc(-c6ccccc6)oc5c4)nn3)ccc12 | 59 | 145 | 928
Cc1ccc2oc(-c3ccc(OCCCCc4cn(CCOCCOCCOc5ccc(-c6oc7ccccc7c(=O)c6OCc6ccccc6)cc5)nn4)cc3)cc(=O)c2c1 | 20 | 24 | 422
Cc1ccc2oc(-c3ccc(OCCCCc4cn(CCN(CCOc5ccc6c(=O)cc(-c7ccccc7)oc6c5)Cc5ccccc5)nn4)cc3)cc(=O)c2c1 | 372 | 543 | > 1000
Cc1ccc2oc(-c3ccc(OCCOCCOCCn4cc(CCCCOc5ccc6c(=O)cc(-c7ccccc7)oc6c5)nn4)cc3)cc(=O)c2c1 | 46 | 33 | 198
Cc1ccc2oc(-c3ccc(OCCOCCOCCOCCOCCOc4ccc(-c5cc(=O)c6cc(C)ccc6o5)cc4)cc3)cc(=O)c2c1 [1,16-Bis[40-((6-methyl)-4H-chromen-4-on-2-yl)phenyl]-1,4,7,10,13,16-hexaoxahexadecane] | 63 | 65 | 264

Further compounds by falling EC50 [1], results first:

EC50 [1] [nM] | EC50 [2] [nM] | EC50 [3] [nM] | SMILES
320 | 58 | 747 | Cc1ccc2oc(-c3ccc(OCCCCc4cn(CCOCCOCCOc5ccc(-c6cc(=O)c7cc(F)ccc7o6)cc5)nn4)cc3)cc(=O)c2c1
308 | 195 | > 1000 | O=c1cc(-c2ccccc2)oc2cc(OCCOCCn3cc(COCCOc4ccc5c(=O)cc(-c6ccccc6)oc5c4)nn3)ccc12
250 | 83 | > 1000 | O=c1cc(-c2ccccc2)oc2cc(OCCOCCOCCn3cc(CN(Cc4ccccc4)Cc4cn(CCOCCOCCOc5ccc6c(=O)cc(-c7ccccc7)oc6c5)nn4)nn3)ccc12
230 | 54 | 526 | Cc1ccc2oc(-c3ccc(OCCCCc4cn(CCOCCOCCOc5ccc(-c6cc(=O)c7cc(C)ccc7o6)cc5)nn4)cc3)cc(=O)c2c1
145 | 90 | 773 | Cc1ccc2oc(-c3ccc(OCCOCCOCCn4cc(COCCOc5ccc6c(=O)cc(-c7ccccc7)oc6c5)nn4)cc3)cc(=O)c2c1
94 | 47 | 288 | O=c1cc(-c2ccccc2)oc2cc(OCCCCc3cn(CCOCCOCCOc4ccc5c(=O)cc(-c6ccccc6)oc5c4)nn3)ccc12
55 | 108 | 573 | COC(=O)c1cccc(COc2c(-c3ccc(OCCOCCn4cc(CN5CCCN(Cc6cn(CCOCCOc7ccc(-c8oc9ccccc9c(=O)c8OCc8cccc(C(=O)OC)c8)cc7)nn6)CC5)nn4)cc3)oc3ccccc3c2=O)c1
39 | 70 | 679 | Cc1ccc2oc(-c3ccc(OCCCCc4cn(CCN(CCOc5ccc(-c6cc(=O)c7ccccc7o6)cc5)Cc5ccccc5)nn4)cc3)cc(=O)c2c1
31 | 44 | 325 | O=c1cc(-c2ccccc2)oc2cc(OCCCCc3cn(CCOCCOCCOc4ccc(-c5cc(=O)c6cc(F)ccc6o5)cc4)nn3)ccc12
30 | 67 | 300 | O=c1cc(-c2ccc(OCCOCCn3cc(CCCOc4ccc5c(=O)cc(-c6ccccc6)oc5c4)nn3)cc2)oc2ccccc12
25 | 38 | 383 | O=c1cc(-c2ccccc2)oc2cc(OCCOCc3cn(CCOCCOCCOc4ccc(-c5oc6ccccc6c(=O)c5OCc5ccccc5)cc4)nn3)ccc12
22 | 42 | 490 | O=c1cc(-c2ccccc2)oc2cc(OCCCc3cn(CCOCCOc4ccc5c(=O)cc(-c6ccccc6)oc5c4)nn3)ccc12
6.5 | 9.6 | 481 | COC(=O)c1cccc(COc2c(-c3ccc(OCCOCCn4cc(CCCOc5ccc(-c6cc(=O)c7ccc(F)cc7o6)cc5)nn4)cc3)oc3ccccc3c2=O)c1
